Experimental data as given in patent publication US20120128788A1, “COLLAGEN PRODUCTION ENHANCER” (SOFSERA CORPORATION, priority 2009, published 2012).
Where “and” joins values, the source holds several entries; their conditions need not be identical. Equal values may be shown once.

Tested on: Fibroblasts of a normal human
Experiment: Test for determining activity of fibroblast to enhance type I collagen production (ELISA of culture medium)
Format: cell-based
Details: positive control, 25 μM, 24 h, n=6
Protocol: Fibroblasts of a normal human were cultured for 24 hours in 0.5% FBS-DMEM culture medium containing the test sample, and the amount of collagen in the culture medium was quantified by ELISA. The test was carried out by repeating six times for each condition (n=6). As a positive control (P.C.), magnesium ascorbyl phosphate (VCPMg) was used. The test samples employed were the calcined hydroxyapatite that is produced in the Production Example 1 and the non-calcined hydroxyapatite that is used in the Production Example 2.

O=C1O[C@H]([C@@H](O)CO)C([O-])=C1OP(=O)([O-])[O-].O=C1O[C@H]([C@@H](O)CO)C([O-])=C1OP(=O)([O-])[O-].[Mg+2].[Mg+2].[Mg+2] [VC-PMg, magnesium ascorbyl phosphate]
Collagen Mean ± SD: 24.28 ± 1.06 μg/mg protein and 19.75 ± 1.11 μg/mg protein
